Like-named read-outs stand apart in the source and are kept apart here.
Columns and labels:
gut microbiome = settings: cited from earlier work
microbial strains = assay: Indirect assay: growth with RebA as the only carbon source and RebA degradation by the soluble fraction of the cell extract; type: cell-based; settings: defined mineral medium, 10 g/L RebA as only carbon source, 28° C., 72 h; 19 microbial strains
Method: Microbial strains were assayed for their ability to assimilate RebA from the culture medium by growing the strains in a defined mineral medium with RebA as the only carbon source.
This medium contained (per liter): 10 g RebA, 5 g (NH4)2SO4, 3 g KH2PO4, 0.5 g MgSO4×7H2O, 15 mg EDTA, 4.5 mg ZnSO4×7H2O, 0.3 mg CoCl2×6H2O, 1 mg MnCl2×4H2O, 0.3 mg CuSO4×5H2O, 4.5 mg CaCl2×2H2O, 3 mg FeSO4×7H2O, 0.4 mg NaMoO4×2H2O, 1 mg H3BO3, 0.1 mg KI, 0.05 mg biotin, 1 mg calcium pantothenate, 25 mg inositol, 1 mg thiamine HCl, 1 mg pyridoxine HCl, 0.2 mg para-aminobenzoic acid. A volume of 1 mL culture medium was inoculated with 10 μl of an overnight culture grown.
All cultivations were performed in 96 square well plates on a laboratory shaker with 300 rpm and 5.1 cm shaking diameter at 28° C. for 72 h. Growth was monitored by mixing 50 μL or culture volume with 50 μL ethanol in a 96 well plate and subsequently measuring the optical density at 600 nm (OD600) in a spectrophotometer (Molecular Devices). […]
Then, 70 μL of a 2 g/L RebA solution was added to the soluble fraction before incubation at 72 h at 28° C. RebA was detected by LC-MS set to single ion monitoring (SIM) mode, negative mode, m/z=965.60.
The difference in RebA concentration between the start and the end of the incubation was calculated for each soluble fraction. […]

[1] = test system: Kluyveromyces marxianus strain; assay: Direct assay: quantification of intracellular RebA by LC-MS; type: cell-based
Method: The selected microbial strain was cultivated in a defined mineral medium with RebA as the only carbon source. This medium contained (per liter): 9 g RebA, 5 g (NH4)2SO4, 3 g KH2PO4, 0.5 g MgSO4×7H2O, 15 mg EDTA, 4.5 mg ZnSO4×7H2O, 0.3 mg CoCl2×6H2O, 1 mg MnCl2×4H2O, 0.3 mg CuSO4×5H2O, 4.5 mg CaCl2×2H2O, 3 mg FeSO4×7H2O, 0.4 mg NaMoO4×2H2O, 1 mg H3BO3, 0.1 mg KI, 0.05 mg biotin, 1 mg calcium pantothenate, 25 mg inositol, 1 mg thiamine HCl, 1 mg pyridoxine HCl, 0.2 mg para-aminobenzoic acid. A volume of 20 mL culture medium was inoculated with a single colony. All cultivations were performed in 25 mL culture medium in a 300 mL non-baffled shake flask on a laboratory shaker with 250 rpm and 2.5 cm shaking diameter at 28° C. for 72 h. The complete culture was transferred to a beaker containing 125 mL of a solution containing 45 ppm 4-Nitrophenyl β-D-glucopyranoside in 60% methanol in water that was pre-cooled to −40° C. The mixture was then transferred to three 50 mL centrifugation tubes that were pre-cooled on dry ice and centrifuged below 0° C. at 4248 g for 10 min. Subsequently, an aliquot of the supernatant (quench) was stored at −80° C. and the rest of the supernatant was discarded, while the pellet was kept on dry ice. Then 5 mL 60% methanol in water pre-cooled on dry ice was used to re-suspend the 3 pellets. The re-suspended pellets were transferred to a single 15 mL centrifugation tube precooled on dry ice and centrifuged below 0° C. at 4248 g for 10 min. Then the supernatant was discarded and the pellet was re-suspended in fresh 5 mL 60% methanol in water pre-cooled on dry ice and the suspension was centrifuged below 0° C. at 4248 g for 10 min. Then the supernatant was discarded and the pellet was re-suspended again in fresh 5 mL 60% methanol in water pre-cooled on dry ice and the suspension was centrifuged below 0° C. at 4248 g for 10 min. […] The concentration of RebA in quench, wash, and cell extract was quantified by LC-MS (FIG. 2), in which the error bars indicate the standard error of mean from 2 parallel experiments.

SMILES | degradation by the gut microbiome (gut microbiome; Gardana et al., 2003) | assimilation of RebA from the culture medium (microbial strains) | degradation by the gut microbiome (gut microbiome) | concentration of RebA in the cell extract versus quench and wash solutions ([1]; 9 g/L RebA as only carbon source, 72 h, LC-MS, FIG. 2, 2 parallel experiments) | concentration of RebA in the wash solution versus quench solution ([1]; LC-MS, FIG. 2) | intracellular accumulation of RebA ([1]; conclusion from cell extract versus quench and wash concentrations)
C=C1C[C@@]23CC[C@H]4[C@@](C)(CCC[C@@]4(C)C(=O)O)[C@@H]2CC[C@]1(O)C3 [steviol] | not metabolized further |  |  |  |  | 
C=C1C[C@@]23CC[C@H]4[C@@](C)(CCC[C@@]4(C)C(=O)O[C@@H]4O[C@H](CO)[C@@H](O)[C@H](O)[C@H]4O)[C@@H]2CC[C@]1(O[C@@H]1O[C@H](CO)[C@@H](O)[C@H](O[C@@H]2O[C@H](CO)[C@@H](O)[C@H](O)[C@H]2O)[C@H]1O[C@@H]1O[C@H](CO)[C@@H](O)[C@H](O)[C@H]1O)C3 [RebA, Rebaudioside A] |  | found to assimilate RebA | glucose residues are cleaved off | exceeds that in the quench and wash solutions | higher than in the quench solution | accumulated intracellularly

From patent publication US20200308616A1, “PROCESS FOR PRODUCING HIGH PURITY STEVIOL GLYCOSIDES” (PureCircle Sdn Bhd, priority 2015, published 2020)
